Reference: patent US10577363B2, “Substituted piperidine compounds” (EPIZYME, INC., priority 2014, dated 2020)

What follows are molecules tested against SMYD3 (Homo sapiens (Human), UniProt Q9H7B4) (assay: SMYD3 biochemical assay (SPA, 3H-SAM methylation of MEKK2 protein substrate)). Conditions: read-out: SMYD3 Biochem IC50 (μM)*.
Excerpt: S-adenosylmethionine (SAM), S-adenosylhomocysteine (SAH), Tris, Tween20, dimethylsulfoxide (DMSO), bovine skin gelatin (BSG), and Tris(2-carboxyethyl)phosphine hydrochloride solution (TCEP) were purchased from Sigma-Aldrich at the highest level of purity possible. ^3H-SAM was purchase from American Radiolabeled Chemicals with a specific activity of 80 Ci/mmol. 384-well opaque white OptiPlates and SPA beads (Perkin Elmer, catalog # RPNQ0013) were purchased from PerkinElmer.
N-terminally GST-tagged MEKK2 (MAP3K2) protein corresponding to reference sequence AAF63496.3 was purchased from Life Technologies (catalog # PV4010). This protein was expressed in High Five insect cells and purified to >85% purity. Protein identity was confirmed by MS/MS analysis after proteolytic digestion. The protein sequence used was:
Full-length human SMYD3 isoform 1 (BAB86333) was inserted into a modified pET21b plasmid containing a His6 tag and TEV and SUMO cleavage sites.
E. coli (BL21 codonplus RIL strain, Stratagene) were transformed with plasmid pEPZ553 by mixing competent cells and plasmid DNA and incubating on ice for 30 minutes followed by heat shock at 42° C. for 1 minute and cooling on ice for 2 minutes. Transformed cells were grown and selected on LB agar with 100 μg/mL ampicillin and 17 μg/mL chloramphenicol at 37° C. overnight. A single clone was used to inoculate 200 mL of LB medium with 100 μg/mL ampicillin and 17 μg/mL chloramphenicol and incubated at 37° C. on an orbital shaker at 180 rpm. Once in log growth, the culture was diluted 1:100 into 2 L of LB medium and grown until OD600 was about 0.3 after which the culture was incubated at 15° C. and 160 rpm. Once OD600 reached about 0.4, IPTG was added to a final concentration of 0.1 mM and the cells were grown overnight at 15° C. and 160 rpm. Cells were harvested by centrifugation at 8000 rpm, for 4 minutes at 4° C. and stored at −80° C. for purification.
The column was washed with Buffer B (Buffer A plus 20 mM imidazole) and His-tagged SMYD3 was eluted with Buffer C (Buffer A plus 300 mM imidazole). The His tag, TEV and SUMO cleavage sites were removed generating native SMYD3 by addition of ULP1 protein at a ratio of 1:200 (ULP1:SMYD3). Imidazole was removed by dialysis overnight in Buffer A. The dialyzed solution was applied to a second Nickel column and the native SMYD3 protein was collected from the column flow-through. The flow-through was dialyzed in Buffer D (25 mM Tris, 5% glycerol, 5 mM β-mercaptoethanol, 50 mM NaCl, pH7.8) and ULP1 was removed using a Q sepharose fast flow column.
General Procedure for SMYD3 Enzyme Assays on MEKK2 Protein Substrate
The assays were all performed in a buffer consisting of 25 mM Tris-Cl pH 8.0, 1 mM TCEP, 0.005% BSG, and 0.005% Tween 20, prepared on the day of use. […] DMSO (1 ul) was added to Columns 11, 12, 23, 24, rows A-H for the maximum signal control and 1 ul of SAH, a known product and inhibitor of SMYD3, was added to columns 11, 12, 23, 24, rows I-P for the minimum signal control. A cocktail (40 ul) containing the SMYD3 enzyme was added by Multidrop Combi (Thermo-Fisher). The compounds were allowed to incubate with SMYD3 for 30 min at room temperature, then a cocktail (10 ul) containing SAM and MEKK2 was added to initiate the reaction (final volume=51 ul). […] The assays were stopped by the addition of non-radiolabeled SAM (10 ul) to a final concentration of 100 uM, which dilutes the ^3H-SAM to a level where its incorporation into MEKK2 is no longer detectable. Radiolabeled MEKK2 was detected using a scintillation proximity assay (SPA). 10 uL of a 10 mg/mL solution of SPA beads in 0.5 M citric acid was added and the plates centrifuged at 600 rpm for 1 min to precipitate the radiolabeled MEKK2 onto the SPA beads. The plates were then read in a PerkinElmer TopCount plate reader to measure the quantity of ^3H-labeled MEKK2 as disintegrations per minute (dpm) or alternatively, referred to as counts per minute (cpm).
Molecule `NC[C@H](Cc1ccc(O)c(Cl)c1)C(=O)N1CCC(NC(=O)c2cc(C3CC3)on2)CC1` [compound 64, (S)-N-(1-(3-amino-2-(3-chloro-4-hydroxybenzyl)propanoyl)piperidin-4-yl)-5-cyclopropylisoxazole-3-carboxamide] has an IC50 of 7.16 µM. In the case of `C[C@H]1CN(C(=O)[C@@H](N)Cc2ccc(O)cc2)CCC1NC(=O)c1cc(C2CC2)on1` (stereo partly drawn) [compound 67, N-((3S)-1-(L-tyrosyl)-3-methylpiperidin-4-yl)-5-cyclopropylisoxazole-3-carboxamide], the IC50 is reported as 2.32 µM. `C[C@@H]1CN(C(=O)[C@@H](N)Cc2ccc(O)cc2)CCC1NC(=O)c1cc(C2CC2)on1` (stereo partly drawn) [compound 68, N-((3R)-1-(L-tyrosyl)-3-methylpiperidin-4-yl)-5-cyclopropylisoxazole-3-carboxamide] showed an IC50 of 1.69 µM. In the case of `C[C@H]1CC(NC(=O)c2cc(C3CC3)on2)CCN1C(=O)CCN1CCCC1` (stereo partly drawn) [compound 69, 5-cyclopropyl-N-((2S)-2-methyl-1-(3-(pyrrolidin-1-yl)propanoyl)piperidin-4-yl)isoxazole-3-carboxamide], the IC50 is reported as 12.4 µM. `C[C@@H]1CC(NC(=O)c2cc(C3CC3)on2)CCN1C(=O)CCN1CCCC1` (stereo partly drawn) [compound 70, 5-cyclopropyl-N-((2R)-2-methyl-1-(3-(pyrrolidin-1-yl)propanoyl)piperidin-4-yl)isoxazole-3-carboxamide] showed an IC50 of 7.73 µM. `C[C@H]1CC(NC(=O)c2cc(C3CC3)on2)CCN1C(=O)[C@H]1C[C@@H](N)C1` (stereo partly drawn) [compound 71, N-((2S)-1-((1s,3R)-3-aminocyclobutane-1-carbonyl)-2-methylpiperidin-4-yl)-5-cyclopropylisoxazole-3-carboxamide] gave an IC50 of 2.54 µM. Work on `C[C@H]1CC(NC(=O)c2cc(C3CC3)on2)CCN1C(=O)[C@H]1C[C@H](N)C1` (stereo partly drawn) [compound 72, N-((2S)-1-((1r,3S)-3-aminocyclobutane-1-carbonyl)-2-methylpiperidin-4-yl)-5-cyclopropylisoxazole-3-carboxamide] yielded an IC50 of 2.72 µM. Molecule `N[C@H]1CC[C@H](C(=O)N2C3CCCC2CC(NC(=O)c2cc(C4CC4)on2)C3)CC1` (some centres unmarked) [compound 73, N-(9-((1r,4r)-4-aminocyclohexane-1-carbonyl)-9-azabicyclo[3.3.1]nonan-3-yl)-5-cyclopropylisoxazole-3-carboxamide] has an IC50 of 5.35 µM. Molecule `CCS(=O)(=O)N1CCC(NC(=O)c2cc(C3CC3)on2)C[C@H]1C` (stereo partly drawn) [compound 75, 5-cyclopropyl-N-((2R)-1-(ethylsulfonyl)-2-methylpiperidin-4-yl)isoxazole-3-carboxamide] has an IC50 of 7.31 µM. `CC[C@H]1CN(C(=O)CC2CCNCC2)CC[C@@H]1NC(=O)c1cc(C2CC2)on1` [compound 76, 5-cyclopropyl-N-((3S,4S)-3-ethyl-1-(2-(piperidin-4-yl)acetyl)piperidin-4-yl)isoxazole-3-carboxamide] gave an IC50 of 0.541 µM. `N[C@H](Cc1ccc(O)cc1)CN1CCC(NC(=O)c2cc(C3CC3)on2)CC1` [compound 79, (R)-N-(1-(2-amino-3-(4-hydroxyphenyl)propyl)piperidin-4-yl)-5-cyclopropylisoxazole-3-carboxamide] showed an IC50 of 20.4 µM. In the case of `CC1CN(C(=O)CCN)CCC1NC(=O)c1cc(C2CC2)on1` (centres unmarked) [compound 80, N-(1-(3-aminopropanoyl)-3-methylpiperidin-4-yl)-5-cyclopropylisoxazole-3-carboxamide], the IC50 is reported as 6.81 µM. `C[C@@H]1CC(NC(=O)c2cc(C3CC3)on2)CCN1C(=O)CN` (stereo partly drawn) [compound 81, 5-cyclopropyl-N-((2R)-1-glycyl-2-methylpiperidin-4-yl)isoxazole-3-carboxamide] showed an IC50 of 22.1 µM. For `C[C@H]1C[C@@H](NC(=O)c2cc(C3CC3)on2)CCN1C(=O)CCN` [compound 82, N-((2S,4S)-1-(3-aminopropanoyl)-2-methylpiperidin-4-yl)-5-cyclopropylisoxazole-3-carboxamide], the IC50 was 10.5 µM. Molecule `C[C@H]1C[C@H](NC(=O)c2cc(C3CC3)on2)CCN1C(=O)CCN` [compound 83, N-((2S,4R)-1-(3-aminopropanoyl)-2-methylpiperidin-4-yl)-5-cyclopropylisoxazole-3-carboxamide] has an IC50 of 6.6 µM. In the case of `C[C@@H]1CC(NC(=O)c2cc(C3CC3)on2)CCN1C(=O)CCN` (stereo partly drawn) [compound 84, N-((2R)-1-(3-aminopropanoyl)-2-methylpiperidin-4-yl)-5-cyclopropylisoxazole-3-carboxamide], the IC50 is reported as 6.14 µM. With `C[C@H]1CC(NC(=O)c2cc(C3CC3)on2)CCN1C(=O)[C@@H]1CC[C@@H](N)C1` (stereo partly drawn) [compound 85, N-((2S)-1-((1R,3R)-3-aminocyclopentane-1-carbonyl)-2-methylpiperidin-4-yl)-5-cyclopropylisoxazole-3-carboxamide] the IC50 was 2.37 µM. `C[C@H]1CC(NC(=O)c2cc(C3CC3)on2)CCN1C(=O)[C@@H]1CC[C@H](N)C1` (stereo partly drawn) [compound 86, N-((2S)-1-((1R,3S)-3-aminocyclopentane-1-carbonyl)-2-methylpiperidin-4-yl)-5-cyclopropylisoxazole-3-carboxamide] gave an IC50 of 2.56 µM. For `C[C@@H]1CC(NC(=O)c2cc(C3CC3)on2)CCN1C(=O)[C@H]1C[C@@H](N)C1` (stereo partly drawn) [compound 87, N-((2R)-1-((1s,3S)-3-aminocyclobutane-1-carbonyl)-2-methylpiperidin-4-yl)-5-cyclopropylisoxazole-3-carboxamide], the IC50 was 3.25 µM. `NC1CCC(C(=O)N2CCC(NC(=O)c3cc(C4CC4)on3)CC2c2ccccc2)CC1` (centres unmarked) [compound 89, N-(1-((1r,4r)-4-aminocyclohexane-1-carbonyl)-2-phenylpiperidin-4-yl)-5-cyclopropylisoxazole-3-carboxamide] showed an IC50 of 3.39 µM. In the case of `CN[C@H]1CC[C@H](C(=O)N2CCC(NC(=O)c3cc(C4CC4)on3)C[C@@H]2C)CC1` (stereo partly drawn) [compound 90, 5-cyclopropyl-N-((2S)-2-methyl-1-((1r,4S)-4-(methylamino)cyclohexane-1-carbonyl)piperidin-4-yl)isoxazole-3-carboxamide], the IC50 is reported as 5.33 µM. Molecule `C[C@H]1CC(NC(=O)c2cc(C3CC3)on2)CCN1C(=O)CN1CCNCC1` (stereo partly drawn) [compound 91, 5-cyclopropyl-N-((2S)-2-methyl-1-(2-(piperazin-1-yl)acetyl)piperidin-4-yl)isoxazole-3-carboxamide] has an IC50 of 3.91 µM. Molecule `C[C@@H]1CC(NC(=O)c2cc(C3CC3)on2)CCN1C(=O)CN1CCNCC1` (stereo partly drawn) [compound 92, 5-cyclopropyl-N-((2R)-2-methyl-1-(2-(piperazin-1-yl)acetyl)piperidin-4-yl)isoxazole-3-carboxamide] has an IC50 of 0.778 µM. With `CC[C@H]1CN(C(=O)C2CCC(N)CC2)CC[C@@H]1NC(=O)c1cc(C2CC2)on1` (stereo partly drawn) [compound 93, N-((3S,4S)-1-(4-aminocyclohexane-1-carbonyl)-3-ethylpiperidin-4-yl)-5-cyclopropylisoxazole-3-carboxamide] the IC50 was 1.61 µM. Work on `CC[C@H]1CC(NC(=O)c2cc(C3CC3)on2)CCN1C(=O)[C@H]1CC[C@H](N)CC1` (stereo partly drawn) [compound 94, N-((2S)-1-((1r,4S)-4-aminocyclohexane-1-carbonyl)-2-ethylpiperidin-4-yl)-5-cyclopropylisoxazole-3-carboxamide] yielded an IC50 of 2.38 µM. With `C[C@@H]1CC(NC(=O)c2cc(C3CC3)on2)CCN1C(=O)[C@@H]1CC[C@@H](N)C1` (stereo partly drawn) [compound 95, N-((2R)-1-((1R,3R)-3-aminocyclopentane-1-carbonyl)-2-methylpiperidin-4-yl)-5-cyclopropylisoxazole-3-carboxamide] the IC50 was 0.532 µM.
